Read-outs that look alike come from different tables or passages of the source.
Key:
human orexin-1 receptor = human orexin-1 receptor (Homo sapiens (Human), UniProt O43613); assay: Intracellular calcium measurements (FLIPR), antagonism of orexin-A response; type: cell-based; settings: CHO cells, 3 nM orexin-A, read-out: IC50 Ox1
Experimental: (§1) In Vitro Assay: Intracellular Calcium Measurements:
(§2) Chinese hamster ovary (CHO) cells expressing the human orexin-1 receptor and the human orexin-2 receptor, respectively, are grown in culture medium (Ham F-12 with L-Glutamine) containing 300 μg/ml G418, 100 U/ml penicillin, 100 μg/ml streptomycin and 10% heat inactivated fetal calf serum (FCS). The cells are seeded at 20'000 cells/well into 384-well black clear bottom sterile plates (Greiner). The seeded plates are incubated overnight at 37° C. in 5% CO2.
(§3) Human orexin-A as an agonist is prepared as 1 mM stock solution in MeOH: water (1:1), diluted in HBSS containing 0.1% bovine serum albumin (BSA), NaHCO3: 0.375 g/l and 20 mM HEPES for use in the assay at a final concentration of 3 nM.
(§4) Antagonists are prepared as 10 mM stock solution in DMSO, then diluted in 384-well plates using DMSO followed by a transfer of the dilutions into in HBSS containing 0.1% bovine serum albumin (BSA), NaHCO3: 0.375 g/l and 20 mM HEPES. On the day of the assay, 50 μl of staining buffer (HBSS containing 1% FCS, 20 mM HEPES, NaHCO3: 0.375 g/l, 5 mM probenecid (Sigma) and 3 μM of the fluorescent calcium indicator fluo-4 AM (1 mM stock solution in DMSO, containing 10% pluronic) is added to each well. The 384-well cell-plates are incubated for 50 min at 37° C. in 5% CO2 followed by equilibration at RT for 30 min before measurement.
(§5) Within the Fluorescent Imaging Plate Reader (FLIPR Tetra, Molecular Devices), antagonists are added to the plate in a volume of 10 μl/well, incubated for 10 min or (where explicitly indicated) for 120 min and finally 10 μl/well of agonist is added. Fluorescence is measured for each well at 1 second intervals, and the height of each fluorescence peak is compared to the height of the fluorescence peak induced by 3 nM orexin-A with vehicle in place of antagonist. The IC50 value (the concentration of compound needed to inhibit 50% of the agonistic response) is determined and may be normalized using the obtained IC50 value of a on-plate reference compound. Optimized conditions were achieved by adjustment of pipetting speed and cell splitting regime. The calculated IC50 values may fluctuate depending on the daily cellular assay performance. Fluctuations of this kind are known to those skilled in the art.

human orexin-2 receptor = human orexin-2 receptor (Homo sapiens (Human), UniProt O43614); assay: as above; type: cell-based; settings: CHO cells, 3 nM orexin-A, read-out: IC50 Ox2
Sequence of human orexin-2 receptor (O43614 whole entry): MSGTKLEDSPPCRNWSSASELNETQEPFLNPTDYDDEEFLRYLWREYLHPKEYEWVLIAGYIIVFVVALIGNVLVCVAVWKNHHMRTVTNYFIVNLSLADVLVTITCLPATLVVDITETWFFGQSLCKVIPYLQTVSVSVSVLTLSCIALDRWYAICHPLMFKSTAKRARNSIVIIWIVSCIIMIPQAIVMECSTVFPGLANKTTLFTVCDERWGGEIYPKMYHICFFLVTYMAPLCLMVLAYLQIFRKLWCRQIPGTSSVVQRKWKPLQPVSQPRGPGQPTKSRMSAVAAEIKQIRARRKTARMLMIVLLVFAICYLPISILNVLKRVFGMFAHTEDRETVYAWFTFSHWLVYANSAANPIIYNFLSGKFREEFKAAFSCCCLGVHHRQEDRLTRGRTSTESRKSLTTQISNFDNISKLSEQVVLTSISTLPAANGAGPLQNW
Experimental: as §1, §2, §3, §4, §5

[1] = compound incubation time of 120 min

Sequence of human orexin-1 receptor (O43613 whole entry): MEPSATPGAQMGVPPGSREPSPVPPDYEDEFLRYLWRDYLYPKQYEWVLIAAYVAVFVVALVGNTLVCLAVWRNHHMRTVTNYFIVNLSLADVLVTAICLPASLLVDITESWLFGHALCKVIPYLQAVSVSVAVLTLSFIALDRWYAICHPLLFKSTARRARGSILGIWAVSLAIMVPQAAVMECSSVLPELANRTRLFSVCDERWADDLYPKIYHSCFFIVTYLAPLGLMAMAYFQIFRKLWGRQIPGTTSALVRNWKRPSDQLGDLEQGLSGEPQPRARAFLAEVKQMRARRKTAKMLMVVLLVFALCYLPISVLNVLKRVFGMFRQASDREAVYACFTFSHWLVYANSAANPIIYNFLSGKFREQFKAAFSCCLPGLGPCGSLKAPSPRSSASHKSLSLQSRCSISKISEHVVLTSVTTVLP

SMILES	IC50 (human orexin-1 receptor; compound incubation 10 min)	IC50 (human orexin-2 receptor; compound incubation 10 min)	IC50 (human orexin-1 receptor; [1])	IC50 (human orexin-2 receptor; [1])
COc1ccc(S(=O)(=O)N2CCC[C@H]2C(=O)Nc2ccc(F)c(Cl)c2)cc1 [Example 31, (S)-1-(4-Methoxy-benzenesulfonyl)-pyrrolidine-2-carboxylic acid (3-chloro-4-fluoro-phenyl)-amide]	74 nM	34 nM	–	–
CCCc1ccc(S(=O)(=O)N2CCC[C@H]2C(=O)Nc2cccc(SC)c2)cc1 [Example 4, (S)-1-(4-Propyl-benzenesulfonyl)-pyrrolidine-2-carboxylic acid (3-methylsulfanyl-phenyl)-amide]	91 nM	47 nM	–	–
COc1cc(C)ccc1S(=O)(=O)N1CCC[C@H]1C(=O)Nc1cc(C)cc(C)c1 [Example 45, (S)-1-(2-Methoxy-4-methyl-benzenesulfonyl)-pyrrolidine-2-carboxylic acid (3,5-dimethyl-phenyl)-amide]	–	–	166 nM	168 nM
CSc1cccc(NC(=O)[C@@H]2CCCN2S(=O)(=O)c2ccc(Br)s2)c1 [Example 1, (S)-1-(5-Bromo-thiophene-2-sulfonyl)-pyrrolidine-2-carboxylic acid (3-methylsulfanyl-phenyl)-amide]	20 nM	10 nM	–	–
COc1ccc(S(=O)(=O)N2CCC[C@H]2C(=O)Nc2ccc(Cl)c(Cl)c2)cc1 [Example 40, (S)-1-(4-Methoxy-benzenesulfonyl)-pyrrolidine-2-carboxylic acid (3,4-dichloro-phenyl)-amide]	130 nM	58 nM	–	–
COc1ccc(S(=O)(=O)N2CCC[C@H]2C(=O)Nc2ccc(F)c(F)c2)cc1 [Example 36, (S)-1-(4-Methoxy-benzenesulfonyl)-pyrrolidine-2-carboxylic acid (3,4-difluoro-phenyl)-amide]	569 nM	136 nM	–	–
CSc1cccc(NC(=O)[C@@H]2CCCN2S(=O)(=O)c2ccc3c(c2)OCCN3C)c1 [Example 5, (S)-1-(4-Methyl-3,4-dihydro-2H-benzo[1,4]oxazine-7-sulfonyl)-pyrrolidine-2-carboxylic acid (3-methylsulfanyl-phenyl)-amide]	128 nM	27 nM	–	–
COc1ccc(S(=O)(=O)N2CCC[C@H]2C(=O)Nc2cc(C)ccc2Cl)cc1 [Example 28, (S)-1-(4-Methoxy-benzenesulfonyl)-pyrrolidine-2-carboxylic acid (2-chloro-5-methyl-phenyl)-amide]	305 nM	224 nM	–	–
CSc1cccc(NC(=O)[C@@H]2CCCN2S(=O)(=O)c2ccc(C(F)(F)F)cc2)c1 [Example 8, (S)-1-(4-Trifluoromethyl-benzenesulfonyl)-pyrrolidine-2-carboxylic acid (3-methylsulfanyl-phenyl)-amide]	63 nM	17 nM	–	–
COc1ccc(S(=O)(=O)N2CCC[C@H]2C(=O)Nc2cc(OC)ccc2Cl)cc1 [Example 29, (S)-1-(4-Methoxy-benzenesulfonyl)-pyrrolidine-2-carboxylic acid (2-chloro-5-methoxy-phenyl)-amide]	625 nM	128 nM	–	–
COc1ccc(S(=O)(=O)N2CCC[C@H]2C(=O)Nc2cccc(Br)c2)cc1 [Example 19, (S)-1-(4-Methoxy-benzenesulfonyl)-pyrrolidine-2-carboxylic acid (3-bromo-phenyl)-amide]	79 nM	37 nM	–	–
COc1ccc(S(=O)(=O)N2CCC[C@H]2C(=O)Nc2cccc(C#N)c2)cc1 [Example 25, (S)-1-(4-Methoxy-benzenesulfonyl)-pyrrolidine-2-carboxylic acid (3-cyano-phenyl)-amide]	994 nM	98 nM	–	–
COc1ccc(S(=O)(=O)N2CCC[C@H]2C(=O)Nc2cccc(OC)c2)cc1 [Example 21, (S)-1-(4-Methoxy-benzenesulfonyl)-pyrrolidine-2-carboxylic acid (3-methoxy-phenyl)-amide]	182 nM	47 nM	–	–
COc1ccc(S(=O)(=O)N2CCC[C@H]2C(=O)Nc2cc(C(F)(F)F)cc(C(F)(F)F)c2)cc1 [Example 30, (S)-1-(4-Methoxy-benzenesulfonyl)-pyrrolidine-2-carboxylic acid (3,5-bis-trifluoromethyl-phenyl)-amide]	86 nM	68 nM	–	–
COc1ccc(S(=O)(=O)N2CCC[C@H]2C(=O)Nc2cc(OC)cc(OC)c2)cc1 [Example 27, (S)-1-(4-Methoxy-benzenesulfonyl)-pyrrolidine-2-carboxylic acid (3,5-dimethoxy-phenyl)-amide]	121 nM	16 nM	–	–
COc1ccc(S(=O)(=O)N2CCC[C@H]2C(=O)Nc2cccc(N(C)C)c2)cc1 [Example 22, (S)-1-(4-Methoxy-benzenesulfonyl)-pyrrolidine-2-carboxylic acid (3-dimethylamino-phenyl)-amide]	234 nM	19 nM	–	–

Other lines, results leading:

IC50 (human orexin-1 receptor; compound incubation 10 min)	IC50 (human orexin-2 receptor; compound incubation 10 min)	IC50 (human orexin-1 receptor; [1])	IC50 (human orexin-2 receptor; [1])	SMILES
–	–	80 nM	14 nM	Cc1cc(C)cc(NC(=O)[C@@H]2CCCN2S(=O)(=O)c2ccc(C(F)(F)F)cc2Cl)c1 [Example 51, (S)-1-(2-Chloro-4-trifluoromethyl-benzenesulfonyl)-pyrrolidine-2-carboxylic acid (3,5-dimethyl-phenyl)-amide]
–	–	79 nM	49 nM	Cc1cc(C)cc(NC(=O)[C@@H]2CCCN2S(=O)(=O)c2ccc(Br)cc2)c1 [Example 41, (S)-1-(4-Bromo-benzenesulfonyl)-pyrrolidine-2-carboxylic acid (3,5-dimethyl-phenyl)-amide]
–	–	179 nM	106 nM	Cc1cc(C)cc(NC(=O)[C@@H]2CCCN2S(=O)(=O)c2ccc(Br)cc2Cl)c1 [Example 58, (S)-1-(4-Bromo-2-chloro-benzenesulfonyl)-pyrrolidine-2-carboxylic acid (3,5-dimethyl-phenyl)-amide]
–	–	211 nM	108 nM	Cc1cc(C)cc(NC(=O)[C@@H]2CCCN2S(=O)(=O)c2ccc(C)cc2C)c1 [Example 56, (S)-1-(2,4-Dimethyl-benzenesulfonyl)-pyrrolidine-2-carboxylic acid (3,5-dimethyl-phenyl)-amide]
–	–	189 nM	92 nM	C=Cc1ccc(S(=O)(=O)N2CCC[C@H]2C(=O)Nc2cc(C)cc(C)c2)cc1 [Example 47, (S)-1-(4-Vinyl-benzenesulfonyl)-pyrrolidine-2-carboxylic acid (3,5-dimethyl-phenyl)-amide]
64 nM	20 nM	–	–	COc1ccc(S(=O)(=O)N2CCC[C@H]2C(=O)Nc2cc(Cl)cc(Cl)c2)cc1 [Example 16, (S)-1-(4-Methoxy-benzenesulfonyl)-pyrrolidine-2-carboxylic acid (3,5-dichloro-phenyl)-amide]
–	–	109 nM	101 nM	COc1ccc(S(=O)(=O)N2CCC[C@H]2C(=O)Nc2cc(C)cc(C)c2)cc1OC [Example 44, (S)-1-(3,4-Dimethoxy-benzenesulfonyl)-pyrrolidine-2-carboxylic acid (3,5-dimethyl-phenyl)-amide]
–	–	216 nM	26 nM	Cc1cc(C)cc(NC(=O)[C@@H]2CCCN2S(=O)(=O)c2cccc3ccccc23)c1 [Example 42, (S)-1-(Naphthalene-1-sulfonyl)-pyrrolidine-2-carboxylic acid (3,5-dimethyl-phenyl)-amide]
–	–	73 nM	25 nM	Cc1cc(C)cc(NC(=O)[C@@H]2CCCN2S(=O)(=O)c2ccc3ccccc3c2)c1 [Example 43, (S)-1-(Naphthalene-2-sulfonyl)-pyrrolidine-2-carboxylic acid (3,5-dimethyl-phenyl)-amide]
15 nM	9 nM	–	–	CSc1cccc(NC(=O)[C@@H]2CCCN2S(=O)(=O)c2ccc(Cl)cc2)c1 [Example 9, (S)-1-(4-Chloro-benzenesulfonyl)-pyrrolidine-2-carboxylic acid (3-methylsulfanyl-phenyl)-amide]
–	–	35 nM	32 nM	Cc1cc(C)cc(NC(=O)[C@@H]2CCCN2S(=O)(=O)c2ccc(Cl)cc2)c1 [Example 46, (S)-1-(4-Chloro-benzenesulfonyl)-pyrrolidine-2-carboxylic acid (3,5-dimethyl-phenyl)-amide]
–	–	62 nM	22 nM	Cc1cc(C)cc(NC(=O)[C@@H]2CCCN2S(=O)(=O)c2ccc(Br)cc2C)c1 [Example 57, (S)-1-(4-Bromo-2-methyl-benzenesulfonyl)-pyrrolidine-2-carboxylic acid (3,5-dimethyl-phenyl)-amide]

Source: US9000029B2, “Proline sulfonamide derivatives as orexin receptor antagonists” (Actelion Pharmaceuticals Ltd., priority 2010, dated 2015)
